In publication PMC12156344, “Furin-Triggered Peptide Self-Assembly Activates Coumarin Excimer Fluorescence for Precision Live-Cell Imaging” (Molecules, 2025):
Peptide text beside a SMILES is read from it. * marks the point of attachment. DEAC = CCN(CC)c1ccc2cc(C(=O)*)c(=O)oc2c1

Legend:
[1] = Transmission electron microscopy (TEM) of self-assembly; format: physicochemical; conditions: aqueous solution, particle size distribution histogram (Figure 3b, S10)
Source text: (§1) Next, we examined the factors driving excimer formation. […] […].

[2] = Dynamic light scattering (DLS); format: physicochemical; conditions: solution; DLS (Figure S11)
Source text: as §1

[3] = Concentration-dependent fluorescence (excimer formation) in furin working buffer; format: physicochemical; conditions: under UV irradiation (365 nm lamp)
Method: In the next phase, we investigated the optical properties of RF-Cou and its enzymatic product F-Cou. […] In contrast, as the concentration increased, a new emission peak around 550 nm gradually emerged in the fluorescence spectra of F-Cou. […] These observations confirmed the formation of Cou excimers.
Figure 2 The fluorescence emission spectra and images of RF-Cou (a,c) and F-Cou (b,d) at different concentrations in furin working buffer. […] The fluorescence spectra were conducted with the excitation of 430 nm and the slit width of 5 nm. The fluorescence images were taken under the 365 nm UV lamp irradiation.

[4] = not given; remark: listed apart in the source
[5] = not given; remark: listed apart in the source
[6] = not given; remark: listed apart in the source
[7] = Critical micelle concentration (CMC) measurement by transmittance; conditions: furin working buffer
Method: The transmittance spectra of the solutions were measured using a UV-3600 spectrophotometer (SHIMADZU, Kyoto, Japan).

[8] = not given; remark: listed apart in the source
furin = furin (Homo sapiens, UniProt P09958); format: biochemical; conditions: 200 μM with 50 U/mL furin, 37 °C, 12 h
Method: Based on the above in vitro experiments, we concluded that RF-Cou existed as a blue fluorescent monomer in aqueous solution. […] These findings validated the feasibility of using RF-Cou for subsequent precision live-cell imaging studies of furin activity.
Figure 3 (a) Fluorescence decay profiles of the first emission peak at 475 nm (blue) and the last emission peak at 550 nm (green) of 200 μM F-Cou; λex = 405 nm. (b) TEM image of F-Cou. Inset: the particle size distribution histogram. (c) LC-MS traces of 200 μM RF-Cou incubated with or without 50 U/mL furin at 37 °C for 12 h. The blue line corresponds to the probe RF-Cou, and the green line represents its cleavage product F-Cou. TEXT PRINTED IN THE PICTURE: (a) no label printed: First peak at 475 nm <τ> = 4.26 ns; Last peak at 550 nm <τ> = 10.73 ns | (b) no label printed: d = 51.1 ± 9.8 nm

[9] = tested on: normal mouse fibroblast L929 cells; format: cell-based; conditions: 200 µM
Method: 4T1 mouse breast cancer cells or L929 mouse fibroblast cells were cultured in RPMI-1640 medium or Dulbecco’s Modified Eagle’s medium (DMEM) supplemented with 10% v/v FBS, 100 U/mL penicillin, 100 μg/mL streptomycin, and 0.25 μg/mL amphotericin B, respectively. These cells were incubated at 37 °C in a humidified atmosphere of 5% CO2. First, the cells (4T1, L929 cell lines) were seeded in 96-well plates (3 × 10^3 cells in each well) and incubated in a 37 °C cell incubator for 24 h. The RPMI-1640 medium or DMEM was replaced with different concentrations of RF-Cou (0, 1.5, 3.1, 6.2, 12.5, 25.0, 50.0, 100, and 200 μM) in the medium and incubated for 24 h or 48 h, respectively. MTT (5 mg/mL, 10 μL) was then added to each well, and the cells were incubated for another 4 h. The formed formazan crystals were dissolved by DMSO (100 μL per well), and the absorbance at 570 nm was measured using a microplate reader (BioTek, Winooski, VT, USA).

[10] = tested on: furin-overexpressing 4T1 tumor cells; assay: Confocal live-cell fluorescence imaging of furin activity, 4T1 cells; format: cell-based, mouse; conditions: 200 μM
Method: (§2) 4T1 cells or L929 cells were seeded on confocal dishes (1 × 10^5 cells/dish) and incubated at 37 °C in a humidified atmosphere of 5% CO2 for 24 h. Following the removal of the conditioned medium, 4T1 cells or L929 cells were treated with RF-Cou (200 μM) at various times (0, 0.5, 1, 2, 4, 6, and 8 h). After the incubation was completed, the medium was discarded, PBS was added to clean the cells three times, and laser confocal scanning microscopy was used for cell imaging. To investigate the role of furin in activating excimer fluorescence, 4T1 cells were pre-incubated with 1 mM of furin inhibitor II (Inh) for 30 min and then treated with RF-Cou (200 μM) for 0.5 h or 6 h before imaging.
(§3) Figure 5 (a) Confocal fluorescence images of furin-overexpressing 4T1 cells or normal L929 cells incubated with 200 μM RF-Cou at varying time points; λex = 405 nm, monomer channel (blue) λem = 415–485 nm; excimer channel (green) λem = 520–600 nm; Scale bar: 50 μm. Time-dependent relative fluorescence intensity in monomer and excimer channels of 4T1 (b) or L929 (c) cells, respectively (n = 3, mean ± SD).
Figure 6 (a) Confocal fluorescence images of 4T1 or L929 cells incubated with 200 μM RF-Cou for 0.5 h or 6 h after being treated with or without furin inhibitor (Inh); λex = 405 nm, monomer channel (blue) λem = 415–485 nm; excimer channel (green) λem = 520–600 nm; Scale bar: 50 μm. Fluorescence intensity in monomer and excimer channels of 4T1 (b) or L929 (c) cells, respectively (n = 3, mean ± SD). Flow cytometry results of the excimer channel fluorescence in 4T1 (d) or L929 (e) incubated with 200 μM RF-Cou for 6 h after being treated with or without Inh.

L929 normal cells = assay: Confocal live-cell fluorescence imaging, L929 cells; format: cell-based, mouse; conditions: 200 μM
Method: as §2, §3
Figure 6 (a) Confocal fluorescence images of 4T1 or L929 cells incubated with 200 μM RF-Cou for 0.5 h or 6 h after being treated with or without furin inhibitor (Inh); λex = 405 nm, monomer channel (blue) λem = 415–485 nm; excimer channel (green) λem = 520–600 nm; Scale bar: 50 μm. […]

furin, sequence (P09958 108-794, species assumed): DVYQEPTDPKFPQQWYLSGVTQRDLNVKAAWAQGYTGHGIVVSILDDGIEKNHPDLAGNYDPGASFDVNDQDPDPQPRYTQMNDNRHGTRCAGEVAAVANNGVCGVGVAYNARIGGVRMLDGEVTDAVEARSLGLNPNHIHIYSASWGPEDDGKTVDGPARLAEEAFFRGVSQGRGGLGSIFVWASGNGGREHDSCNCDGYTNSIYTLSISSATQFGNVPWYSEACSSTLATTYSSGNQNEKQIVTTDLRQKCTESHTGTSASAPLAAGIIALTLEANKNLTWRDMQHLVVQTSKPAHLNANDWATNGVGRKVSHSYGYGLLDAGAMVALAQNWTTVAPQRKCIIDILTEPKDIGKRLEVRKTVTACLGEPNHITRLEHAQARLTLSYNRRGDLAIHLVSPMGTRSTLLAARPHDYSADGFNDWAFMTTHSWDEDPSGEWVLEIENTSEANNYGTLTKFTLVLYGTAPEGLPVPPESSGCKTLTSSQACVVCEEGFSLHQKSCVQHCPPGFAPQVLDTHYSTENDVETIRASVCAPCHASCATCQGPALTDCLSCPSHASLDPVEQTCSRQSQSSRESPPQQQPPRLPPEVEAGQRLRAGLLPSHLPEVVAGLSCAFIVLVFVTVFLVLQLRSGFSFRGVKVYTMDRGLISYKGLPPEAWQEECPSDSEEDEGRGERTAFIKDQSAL

| Compound | Nanoparticle diameter by TEM [1] | Hydrodynamic diameter by DLS [2] | Concentration above which the solution changes from blue to green (excimer formation) [3] | maximum absorption peak [nm] | logP (physchem) | fluorescence lifetime <τ>, 475 nm emission peak [4] [ns] | fluorescence lifetime <τ>, 550 nm emission peak [5] [ns] | fold enhancement of fluorescence lifetime, 550 nm vs 475 nm band [6] [fold] | Critical micelle concentration (CMC) ([7]; transmittance-concentration curve at 600 nm (Figure S9)) [µM] | maximum emission peak [8] [nm] | Cleavage by furin, LC-MS (furin) | Cell viability [9] | Excimer fluorescence after furin inhibitor pretreatment ([10]; 4T1 cells pretreated with 1 mM furin inhibitor II (Inh) for 30 min, 6 h) | Cellular uptake ([10]; 4T1 cells with or without Inh pretreatment, 0.5 h, confocal fluorescence) | Excimer channel fluorescence intensity vs monomer channel ([10]; 4T1 cells, peak at 6 h, λex 405 nm, excimer 520–600 nm, monomer 415–485 nm, n = 3) [fold] | Cellular uptake (L929 normal cells; 0.5 h, confocal fluorescence) | Monomer channel fluorescence intensity vs excimer channel (L929 normal cells; 6 h, λex 405 nm, excimer 520–600 nm, monomer 415–485 nm, n = 3) | Transmittance (self-assembly performance) ([7]; concentrations up to 800 μM, transmittance at 600 nm, UV-3600 spectrophotometer) [%] |
| --- | --- | --- | --- | --- | --- | --- | --- | --- | --- | --- | --- | --- | --- | --- | --- | --- | --- | --- |
| CCN(CC)c1ccc2cc(C(=O)NCCCC[C@H](N)C(=O)N[C@@H](Cc3ccccc3)C(=O)N[C@@H](Cc3ccccc3)C(=O)O)c(=O)oc2c1 [F-Cou, Lys(Cou)-Phe-Phe-OH] | 51.1 ± 9.8 nm | 69.2 ± 18.4 nm | exceeded 31.25 μM | 430 | 1.15 | 4.26 | 10.7 | 2.5 | 45.1 |  |  |  |  |  |  |  |  |  |
| CCN(CC)c1ccc2cc(C(=O)NCCCC[C@H](NC(=O)[C@H](CCCNC(=N)N)NC(=O)[C@H](CCCNC(=N)N)NC(=O)[C@@H](NC(=O)[C@H](CCCNC(=N)N)NC(C)=O)C(C)C)C(=O)N[C@@H](Cc3ccccc3)C(=O)N[C@@H](Cc3ccccc3)C(=O)O)c(=O)oc2c1 [RF-Cou, Ac-Arg-Val-Arg-Arg-Lys(Cou)-Phe-Phe-OH] (Ac-RVRRK(DEAC)FF-OH) | no nanoparticle distribution was observed | no detectable signal corresponding to nanoparticles |  | 430 | -1.46 |  |  |  |  | 475 | could be enzymatically processed by furin to generate F-Cou | over 80% | significantly weaker than that in cells without Inh pretreatment | successful cellular uptake | 3.2 | successful cellular uptake | approximately 5.1 fold | > 95 |
